Assay results taken from patent publication US6737383B1, “Herbicidal oxadiazolidines” (priority 1999, dated 2004).

Key:
[1] = test system: bedstraw; test: Test B pre/postemergence bedstraw; format: in vivo, Galium aparine
How it was run: (§1)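 Test chemicals in a non-phytotoxic solvent mixture with surfactant were sprayed preemergence onto planted seeds and postemergence onto plants 2 to 18 cm tall (1- to 4-leaf stage). After twelve to sixteen days in a greenhouse, injury was visually rated against untreated controls from 0 (no effect) to 10 (complete control).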

[2] = test system: blackgrass; test: Test B pre/postemergence blackgrass; format: in vivo, Alopecurus myosuroides
How it was run: as §1

[3] = test system: surinam grass; test: Test B pre/postemergence surinam grass; format: in vivo, Brachiaria decumbens
How it was run: as §1

[4] = test system: cocklebur; test: Test B pre/postemergence cocklebur; format: in vivo, Xanthium strumarium
How it was run: as §1

[5] = test system: corn; test: Test B pre/postemergence corn; format: in vivo, Zea mays
How it was run: as §1

[6] = test system: crabgrass; test: Test B pre/postemergence crabgrass; format: in vivo, Digitaria sanguinalis
How it was run: as §1

[7] = test system: giant foxtail; test: Test B pre/postemergence giant foxtail; format: in vivo, Setaria faberii
How it was run: as §1

[8] = test system: morningglory; test: Test B pre/postemergence morningglory; format: in vivo, Ipomoea hederacea
How it was run: as §1

[9] = test system: pigweed; test: Test B pre/postemergence pigweed; format: in vivo, Amaranthus retroflexus
How it was run: as §1

[10] = test system: rape; test: Test B pre/postemergence rape; format: in vivo, Brassica napus
How it was run: as §1

[11] = test system: soybean; test: Test B pre/postemergence soybean; format: in vivo, Glycine max
How it was run: as §1

[12] = test system: sugar beet; test: Test B pre/postemergence sugar beet; format: in vivo, Beta vulgaris
How it was run: as §1

[13] = test system: velvetleaf; test: Test B pre/postemergence velvetleaf; format: in vivo, Abutilon theophrasti
How it was run: as §1

[14] = test system: wheat; test: Test B pre/postemergence wheat; format: in vivo, Triticum aestivum
How it was run: as §1

[15] = test system: wild oat; test: Test B pre/postemergence wild oat; format: in vivo, Avena fatua
How it was run: as §1

[16] = test system: purple nutsedge; test: Test B pre/postemergence purple nutsedge; format: in vivo, Cyperus rotundus
How it was run: as §1

[17] = Postemergence, Rate 62 g/ha, scale 0 to 10, 0 is no effect, 10 is complete control
[18] = Postemergence, Rate 125 g/ha, scale of 0 to 10 where 0 is no effect and 10 is complete control
[19] = Preemergence, Rate 62 g/ha, scale of 0 to 10 where 0 is no effect and 10 is complete control
[20] = Preemergence, Rate 125 g/ha, scale of 0 to 10 where 0 is no effect and 10 is complete control
[21] = Preemergence, Rate 250 g/ha, scale 0 (no effect) to 10 (complete control)
[22] = Preemergence, Rate 500 g/ha, scale of 0 to 10 where 0 is no effect and 10 is complete control
[23] = Rate 250 g/ha, Postemergence, scale 0 to 10, 0 is no effect, 10 is complete control
[24] = Rate 500 g/ha, Postemergence, scale 0 to 10, 0 is no effect, 10 is complete control

SMILES: CC(=O)OCC(CCl)n1c(=O)on(C(=O)N(c2ccc(F)cc2F)C(C)C)c1=O (racemic) [Compound 708]
- Plant response rating, Bedstraw [1, 17]: 0
- Bedstraw plant response rating [1, 18]: 0
- Bedstraw plant response rating [1, 19]: 0
- Plant response rating, Bedstraw [1, 20]: 0
- Bedstraw plant response rating [1, 21]: 0
- Plant response rating, Bedstraw [1, 22]: 0
- Plant response rating, Blackgrass [2, 17]: 0
- Blackgrass plant response rating [2, 18]: 0
- Blackgrass plant response rating [2, 19]: 0
- Plant response rating, Blackgrass [2, 20]: 2
- Blackgrass plant response rating [2, 21]: 3
- Plant response rating, Blackgrass [2, 22]: 5
- Blackgrass plant response rating [2, 23]: 2
- Blackgrass plant response rating [2, 24]: 2
- Plant response rating, B. signalgrass [3, 17]: 0
- B. signalgrass plant response rating [3, 18]: 0
- B. signalgrass plant response rating [3, 19]: 0
- Plant response rating, B. signalgrass [3, 20]: 0
- B. signalgrass plant response rating [3, 21]: 0
- Plant response rating, B. signalgrass [3, 22]: 0
- B. signalgrass plant response rating [3, 23]: 0
- B. signalgrass plant response rating [3, 24]: 2
- Plant response rating, Cocklebur [4, 17]: 0
- Cocklebur plant response rating [4, 18]: 0
- Cocklebur plant response rating [4, 19]: 0
- Plant response rating, Cocklebur [4, 20]: 0
- Cocklebur plant response rating [4, 21]: 0
- Plant response rating, Cocklebur [4, 22]: 0
- Cocklebur plant response rating [4, 23]: 0
- Cocklebur plant response rating [4, 24]: 0
- Plant response rating, Corn [5, 17]: 0
- Corn plant response rating [5, 18]: 0
- Corn plant response rating [5, 19]: 0
- Plant response rating, Corn [5, 20]: 0
- Corn plant response rating [5, 21]: 0
- Corn plant response rating [5, 23]: 0
- Corn plant response rating [5, 24]: 0
- Plant response rating, Crabgrass [6, 17]: 0
- Crabgrass plant response rating [6, 18]: 0
- Crabgrass plant response rating [6, 19]: 6
- Plant response rating, Crabgrass [6, 20]: 7
- Crabgrass plant response rating [6, 21]: 10
- Crabgrass plant response rating [6, 23]: 0
- Crabgrass plant response rating [6, 24]: 4
- Plant response rating, Giant foxtail [7, 17]: 0
- Giant foxtail plant response rating [7, 18]: 2
- Giant foxtail plant response rating [7, 19]: 5
- Plant response rating, Giant foxtail [7, 20]: 7
- Giant foxtail plant response rating [7, 21]: 8
- Giant foxtail plant response rating [7, 23]: 4
- Giant foxtail plant response rating [7, 24]: 5
- Plant response rating, Morningglory [8, 17]: 0
- Morningglory plant response rating [8, 18]: 2
- Morningglory plant response rating [8, 19]: 0
- Plant response rating, Morningglory [8, 20]: 0
- Morningglory plant response rating [8, 21]: 0
- Morningglory plant response rating [8, 23]: 2
- Morningglory plant response rating [8, 24]: 5
- Plant response rating, Redroot pigweed [9, 17]: 0
- Redroot pigweed plant response rating [9, 18]: 0
- Redroot pigweed plant response rating [9, 19]: 0
- Plant response rating, Redroot pigweed [9, 20]: 3
- Redroot pigweed plant response rating [9, 23]: 0
- Redroot pigweed plant response rating [9, 24]: 5
- Plant response rating, Rape [10, 17]: 0
- Rape plant response rating [10, 18]: 0
- Rape plant response rating [10, 19]: 0
- Plant response rating, Rape [10, 20]: 0
- Rape plant response rating [10, 21]: 0
- Rape plant response rating [10, 23]: 0
- Rape plant response rating [10, 24]: 0
- Plant response rating, Soybean [11, 17]: 3
- Soybean plant response rating [11, 18]: 4
- Soybean plant response rating [11, 19]: 0
- Plant response rating, Soybean [11, 20]: 0
- Soybean plant response rating [11, 21]: 0
- Soybean plant response rating [11, 23]: 4
- Soybean plant response rating [11, 24]: 4
- Plant response rating, Sugarbeets [12, 17]: 0
- Sugarbeets plant response rating [12, 18]: 0
- Sugarbeets plant response rating [12, 19]: 0
- Plant response rating, Sugarbeets [12, 20]: 0
- Sugarbeets plant response rating [12, 21]: 0
- Sugarbeets plant response rating [12, 23]: 0
- Sugarbeets plant response rating [12, 24]: 0
- Plant response rating, Velvetleaf [13, 17]: 0
- Velvetleaf plant response rating [13, 18]: 0
- Velvetleaf plant response rating [13, 19]: 0
- Plant response rating, Velvetleaf [13, 20]: 0
- Velvetleaf plant response rating [13, 21]: 2
- Velvetleaf plant response rating [13, 23]: 3
- Velvetleaf plant response rating [13, 24]: 5
- Plant response rating, Wheat [14, 17]: 0
- Wheat plant response rating [14, 18]: 0
- Wheat plant response rating [14, 19]: 0
- Plant response rating, Wheat [14, 20]: 0
- Wheat plant response rating [14, 21]: 0
- Wheat plant response rating [14, 23]: 0
- Wheat plant response rating [14, 24]: 0
- Plant response rating, Wild oats [15, 17]: 0
- Wild oats plant response rating [15, 18]: 0
- Wild oats plant response rating [15, 19]: 0
- Plant response rating, Wild oats [15, 20]: 0
- Wild oats plant response rating [15, 21]: 0
- Wild oats plant response rating [15, 23]: 0
- Wild oats plant response rating [15, 24]: 0
- Plant response rating, Nutsedge [16, 17]: 0
- Nutsedge plant response rating [16, 18]: 0
- Plant response rating, Nutsedge [16, 20]: 0
- Nutsedge plant response rating [16, 21]: 0
- Nutsedge plant response rating [16, 23]: 0
- Nutsedge plant response rating [16, 24]: 0
